Data reported in PubChem BioAssay AID2060885 (Molecular Pharmacology Branch, DTP, NCI, 2025).

Tested on: NCI-H23 complex spheroids with HUVEC/MSC, viability
Assay: Anticancer human tumor NCI-H23 cell line growth inhibition [RAS];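 note: spheroids exposed to compound for 7 days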;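 for viability, T/C: 100% = DMSO vehicle control viability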
Conditions: for viability, T/C: stronger effect = lower value
Summary of the method: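 Tumour cells grown as complex spheroids with HUVEC endothelial cells and mesenchymal stem cells, treated with RAS pathway inhibitor combinations. Each agent spans half-log steps from near clinical Cmax, or 10 microM where Cmax is unknown.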

[1] = curve of first compound, second compound 0.0316 µM
[2] = curve of first compound, second compound 0.1 µM
[3] = curve of first compound, second compound 0.316 µM
[4] = curve of first compound, second compound 1 µM
[5] = second compound 0.0316 µM, first compound 0.00316 µM
[6] = second compound 0.0316 µM, first compound 0.01 µM
[7] = second compound 0.0316 µM, first compound 0.0316 µM
[8] = second compound 0.0316 µM, first compound 0.1 µM
[9] = second compound 0.0316 µM, first compound 0.316 µM
[10] = second compound 0.0316 µM, first compound 1 µM
[11] = second compound 0.1 µM, first compound 0.00316 µM
[12] = second compound 0.1 µM, first compound 0.01 µM
[13] = second compound 0.1 µM, first compound 0.0316 µM
[14] = second compound 0.1 µM, first compound 0.1 µM
[15] = second compound 0.1 µM, first compound 0.316 µM
[16] = second compound 0.1 µM, first compound 1 µM
[17] = second compound 0.316 µM, first compound 0.00316 µM
[18] = second compound 0.316 µM, first compound 0.01 µM
[19] = second compound 0.316 µM, first compound 0.0316 µM
[20] = second compound 0.316 µM, first compound 0.1 µM
[21] = second compound 0.316 µM, first compound 0.316 µM
[22] = second compound 0.316 µM, first compound 1 µM
[23] = second compound 1 µM, first compound 0.00316 µM
[24] = second compound 1 µM, first compound 0.01 µM
[25] = second compound 1 µM, first compound 0.0316 µM
[26] = second compound 1 µM, first compound 0.1 µM
[27] = second compound 1 µM, first compound 0.316 µM
[28] = second compound 1 µM, first compound 1 µM

CCc1c2c(nc3ccc(O)cc13)-c1cc3c(c(=O)n1C2)COC(=O)[C@]3(O)CC + CCn1c(-c2cc(N3CCN(C)CC3)cnc2C(C)OC)c2c3cc(ccc31)-c1csc(n1)CC(NC(=O)C1CC1C)C(=O)N1CCCC(N1)C(=O)OCC(C)(C)C2
IC50 (curve of first compound, second compound 0.000949 µM): < 0.949 nM | IC50 (curve of first compound, second compound 0.003 µM): < 0.949 nM | IC50 (curve of first compound, second compound 0.00949 µM): < 0.949 nM | IC50 (curve of first compound, second compound 0.03 µM): < 0.949 nM | IC50 (curve of first compound, second compound 0.0949 µM): < 0.949 nM | IC50 (curve of first compound, second compound 0.3 µM): < 0.949 nM | viability, T/C (second compound 0.000949 µM, first compound 0.000949 µM): 40.7% | viability, T/C (second compound 0.000949 µM, first compound 0.003 µM): 21% | viability, T/C (second compound 0.000949 µM, first compound 0.00949 µM): 4.92% | viability, T/C (second compound 0.000949 µM, first compound 0.03 µM): 2.52% | viability, T/C (second compound 0.000949 µM, first compound 0.0949 µM): 1.86% | viability, T/C (second compound 0.000949 µM, first compound 0.3 µM): 0.88% | viability, T/C (second compound 0.003 µM, first compound 0.000949 µM): 32.5% | viability, T/C (second compound 0.003 µM, first compound 0.003 µM): 13.4% | viability, T/C (second compound 0.003 µM, first compound 0.00949 µM): 4.98% | viability, T/C (second compound 0.003 µM, first compound 0.03 µM): 1.97% | viability, T/C (second compound 0.003 µM, first compound 0.0949 µM): 1.43% | viability, T/C (second compound 0.003 µM, first compound 0.3 µM): 1.2% | viability, T/C (second compound 0.00949 µM, first compound 0.000949 µM): 26.2% | viability, T/C (second compound 0.00949 µM, first compound 0.003 µM): 11.2% | viability, T/C (second compound 0.00949 µM, first compound 0.00949 µM): 5.03% | viability, T/C (second compound 0.00949 µM, first compound 0.03 µM): 1.84% | viability, T/C (second compound 0.00949 µM, first compound 0.0949 µM): 1.75% | viability, T/C (second compound 0.00949 µM, first compound 0.3 µM): 1.2% | viability, T/C (second compound 0.03 µM, first compound 0.000949 µM): 20.6% | viability, T/C (second compound 0.03 µM, first compound 0.003 µM): 11.9% | viability, T/C (second compound 0.03 µM, first compound 0.00949 µM): 5.17% | viability, T/C (second compound 0.03 µM, first compound 0.03 µM): 2.36% | viability, T/C (second compound 0.03 µM, first compound 0.0949 µM): 1.52% | viability, T/C (second compound 0.03 µM, first compound 0.3 µM): 1.97% | viability, T/C (second compound 0.0949 µM, first compound 0.000949 µM): 16% | viability, T/C (second compound 0.0949 µM, first compound 0.003 µM): 10.9% | viability, T/C (second compound 0.0949 µM, first compound 0.00949 µM): 4.9% | viability, T/C (second compound 0.0949 µM, first compound 0.03 µM): 3.03% | viability, T/C (second compound 0.0949 µM, first compound 0.0949 µM): 1.77% | viability, T/C (second compound 0.0949 µM, first compound 0.3 µM): 2.09% | viability, T/C (second compound 0.3 µM, first compound 0.000949 µM): 15.7% | viability, T/C (second compound 0.3 µM, first compound 0.003 µM): 10.6% | viability, T/C (second compound 0.3 µM, first compound 0.00949 µM): 4.9% | viability, T/C (second compound 0.3 µM, first compound 0.03 µM): 2.44% | viability, T/C (second compound 0.3 µM, first compound 0.0949 µM): 2.32% | viability, T/C (second compound 0.3 µM, first compound 0.3 µM): 2.38%

C=CC(=O)N1CCN(c2nc(OCC3CCCN3C)nc3c(F)c(-c4nc(N)cc(C)c4C(F)(F)F)c(Cl)cc23)C(C)C1 (stereo not drawn) + C#Cc1c(F)ccc2cc(O)cc(-c3ncc4c(N5CC6CCC(C5)N6)nc(OCC56CCCN5CC(F)C6)nc4c3F)c12
IC50 [1]: 11.5 nM | IC50 [2]: 19.2 nM | IC50 [3]: 24.2 nM | IC50 [4]: 13.8 nM | IC50 (curve of first compound, second compound 3.16 µM): 11.3 nM | IC50 (curve of first compound, second compound 10 µM): < 3.16 nM | viability, T/C [5]: 72.4% | viability, T/C [6]: 52.6% | viability, T/C [7]: 40.5% | viability, T/C [8]: 35.5% | viability, T/C [9]: 38% | viability, T/C [10]: 36.3% | viability, T/C [11]: 80.7% | viability, T/C [12]: 58.2% | viability, T/C [13]: 45.3% | viability, T/C [14]: 35.7% | viability, T/C [15]: 30.3% | viability, T/C [16]: 42.2% | viability, T/C [17]: 65.2% | viability, T/C [18]: 61.3% | viability, T/C [19]: 46.5% | viability, T/C [20]: 37.9% | viability, T/C [21]: 35% | viability, T/C [22]: 37.2% | viability, T/C [23]: 83.2% | viability, T/C [24]: 54.5% | viability, T/C [25]: 37.7% | viability, T/C [26]: 39.2% | viability, T/C [27]: 39.5% | viability, T/C [28]: 37.7% | viability, T/C (second compound 3.16 µM, first compound 0.00316 µM): 59.9% | viability, T/C (second compound 3.16 µM, first compound 0.01 µM): 55.9% | viability, T/C (second compound 3.16 µM, first compound 0.0316 µM): 38.4% | viability, T/C (second compound 3.16 µM, first compound 0.1 µM): 42.3% | viability, T/C (second compound 3.16 µM, first compound 0.316 µM): 39.8% | viability, T/C (second compound 3.16 µM, first compound 1 µM): 38.5% | viability, T/C (second compound 10 µM, first compound 0.00316 µM): 35.7% | viability, T/C (second compound 10 µM, first compound 0.01 µM): 39.6% | viability, T/C (second compound 10 µM, first compound 0.0316 µM): 42.4% | viability, T/C (second compound 10 µM, first compound 0.1 µM): 32.3% | viability, T/C (second compound 10 µM, first compound 0.316 µM): 30.4% | viability, T/C (second compound 10 µM, first compound 1 µM): 33.5%

C#Cc1c(F)ccc2cc(O)cc(-c3ncc4c(N5CC6CCC(C5)N6)nc(OCC56CCCN5CC(F)C6)nc4c3F)c12 (stereo not drawn)
viability, T/C (compound 0.0316 µM): 108% [middle of 8 runs] | viability, T/C (compound 0.1 µM): 105% [middle of 8 runs] | viability, T/C (compound 0.316 µM): 99.5% [middle of 8 runs] | viability, T/C (compound 1 µM): 89.5% [middle of 8 runs] | viability, T/C (compound 3.16 µM): 63.2% [middle of 8 runs] | viability, T/C (compound 10 µM): 38.2% [middle of 7 runs] | IC50 (compound alone, run of 07/15/2024): 5.77 µM [middle of 8 runs]

Nc1ccn(C2OC(CO)C(O)C2(F)F)c(=O)n1 (stereo not drawn) + C=CC(=O)N1CCN(c2nc(OCC3CCCN3C)nc3c(F)c(-c4nc(N)cc(C)c4C(F)(F)F)c(Cl)cc23)C(C)C1
IC50 (curve of first compound, second compound 0.00316 µM): < 3.16 nM | IC50 (curve of first compound, second compound 0.01 µM): < 3.16 nM | IC50 [1]: < 3.16 nM | IC50 [2]: < 3.16 nM | IC50 [3]: < 3.16 nM | IC50 [4]: < 3.16 nM | viability, T/C (second compound 0.00316 µM, first compound 0.00316 µM): 29.9% | viability, T/C (second compound 0.00316 µM, first compound 0.01 µM): 4.17% | viability, T/C (second compound 0.00316 µM, first compound 0.0316 µM): 1.98% | viability, T/C (second compound 0.00316 µM, first compound 0.1 µM): 2.04% | viability, T/C (second compound 0.00316 µM, first compound 0.316 µM): 2.83% | viability, T/C (second compound 0.00316 µM, first compound 1 µM): 2.41% | viability, T/C (second compound 0.01 µM, first compound 0.00316 µM): 34.3% | viability, T/C (second compound 0.01 µM, first compound 0.01 µM): 3.54% | viability, T/C (second compound 0.01 µM, first compound 0.0316 µM): 2.75% | viability, T/C (second compound 0.01 µM, first compound 0.1 µM): 2.39% | viability, T/C (second compound 0.01 µM, first compound 0.316 µM): 2.2% | viability, T/C (second compound 0.01 µM, first compound 1 µM): 2.54% | viability, T/C [5]: 24.9% | viability, T/C [6]: 3.04% | viability, T/C [7]: 2.2% | viability, T/C [8]: 2.3% | viability, T/C [9]: 2.25% | viability, T/C [10]: 3.18% | viability, T/C [11]: 20.2% | viability, T/C [12]: 2.99% | viability, T/C [13]: 2.63% | viability, T/C [14]: 1.97% | viability, T/C [15]: 2.37% | viability, T/C [16]: 2.09% | viability, T/C [17]: 24.8% | viability, T/C [18]: 3.77% | viability, T/C [19]: 2.05% | viability, T/C [20]: 1.47% | viability, T/C [21]: 2.4% | viability, T/C [22]: 2.12% | viability, T/C [23]: 21.4% | viability, T/C [24]: 4.48% | viability, T/C [25]: 3.25% | viability, T/C [26]: 2.34% | viability, T/C [27]: 2.71% | viability, T/C [28]: 2.67%
